Measurements taken from patent US20020086278A1, “CHROMOGENIC MEDIA CONTAINING BLOOD OR HEMIN” (priority 1999, published 2002).
Like-named read-outs stand apart in the source and are kept apart here.

Columns and labels:
Type in all cases: cell-based
55 strains = assay: Example 3: color, hemolytic activity and growth over all 55 strains
Excerpt: Steers, E. et al., Antibiot.

[1] = system: Aeromonas hydrophilia (aehy); assay: Example 3: colony color on chromogenic TSA II with 5% sheep blood (chromogen in medium); conditions: for Colony Color: CO2, 21 h
[2] = system: Branhamella catarrhalis (brca); assay: as above; conditions: for Colony Color: CO2, 21 h
Candida albicans (caal) = assay: as above; conditions: for Colony Color: caal 10231, 24 h
[3] = system: Citrobacter freundii (cifr); assay: as above
[4] = system: Entercoccus faecalis (enfa); assay: as above
E. faecium (enfu) = assay: as above; conditions: for Colony Color: enfu 49032, 21 h
[5] = system: E. coli (non-O157) (esco)
[6] = system: Klebsiella pneumoniae (klpn); assay: Example 3: colony color on chromogenic TSA II with 5% sheep blood (chromogen in medium)
[7] = system: Pseudomonas aeruginosa (psae); assay: as above; conditions: for Colony Color: CO2, 21 h
Salmonella spp. (sasp) = conditions: for Colony Color: CO2, 21 h
[8] = system: Serratia marcescens (sema); assay: Example 3: colony color on chromogenic TSA II with 5% sheep blood (chromogen in medium); conditions: for Colony Color: sema 13880, CO2, 21 h
[9] = system: Streptococcus agalactiae (stag); assay: as above
[10] = system: Staphylococcus aureus (stau); assay: as above
[11] = system: Staphylococcus Coag Neg (step); assay: as above; conditions: for Colony Color: 21 h
S. milleri (stmi) = assay: as above; conditions: for Colony Color: stmi 6249, 21 h
S. pneumoniae (stpn) = assay: as above
S pyogenes (stpy) = assay: as above; conditions: for Colony Color: 21 h
cakr 34135 = assay: as above; conditions: CO2, 21 h
milu 9341 = assay: as above; conditions: CO2, 21 h
[12] = chromogenic TSA II with 5% Sheep Blood, 0.1 g/l, 3 strains tested
[13] = chromogenic TSA II with 5% Sheep Blood, 0.1 g/l, 2 strains tested
[14] = chromogenic TSA II with 5% Sheep Blood, 0.1 g/l, 6 strains tested
[15] = chromogenic TSA II with 5% Sheep Blood, 0.1 g/l, 1 strain tested
[16] = chromogenic TSA II with 5% Sheep Blood, 0.1 g/l, 5 strains tested

CC(C)S[C@@H]1O[C@H](CO)[C@H](O)[C@H](O)[C@H]1O [IPTG, Isopropyl-β-D-thiogalactopyranoside]
Effect on reactivity with X-gal (55 strains; some strains): reduce the reactivity

NC1CCCCC1.O=C(O)[C@H]1O[C@@H](Oc2c[nH]c3cc(Cl)ccc23)[C@H](O)[C@@H](O)[C@@H]1O [Sal-Glucuro, 6-Cl-3-indolyl-β-D-glucuronide (CHA salt)]
Colony Color ([1]; aehy 7965): 0 | Colony Color ([1]; aehy 7966): 0 | Colony Color ([1]; aehy 49847): 0 | Colony Color ([2]; brca 25238): 0 | Colony Color ([2]; brca 25240): 0 | Colony Color (Candida albicans (caal); CO2): 0 | Colony Color (Candida albicans (caal); air): 0 | Colony Color ([3]; cifr 8454, CO2, 21 h): 0 | Colony Color ([3]; cifr 33128, CO2, 21 h): 0 | Colony Color ([4]; enfa 597, CO2, 21 h): 0 | Colony Color ([4]; enfa 597, air, 21 h): 0 | Colony Color ([4]; enfa 10741, CO2, 21 h): 0 | Colony Color ([4]; enfa 10741, air, 21 h): 0 | Colony Color ([4]; enfa 12953, CO2, 21 h): 0 | Colony Color ([4]; enfa 12953, air, 21 h): 0 | Colony Color ([4]; enfa 14506, CO2, 21 h): 0 | Colony Color ([4]; enfa 14506, air, 21 h): 0 | Colony Color ([4]; enfa 29212, CO2, 21 h): 0 | Colony Color ([4]; enfa 29212, CO2, 24 h): 0 | Colony Color ([4]; enfa 29212, air, 21 h): 0 | Colony Color ([4]; enfa 29212, air, 24 h): 0 | Colony Color (E. faecium (enfu); CO2): 0 | Colony Color (E. faecium (enfu); air): 0 | Colony Color ([5]; esco 11775, CO2, 21 h): 0 | Colony Color ([5]; esco 25922, CO2, 24 h): 0 | Colony Color ([5]; esco 25922, air, 24 h): 0 | Colony Color ([5]; esco 33605, CO2, 21 h): 0 | Colony Color ([6]; klpn 13883, CO2, 21 h): 0 | Colony Color ([6]; klpn 33495, CO2, 24 h): 0 | Colony Color ([6]; klpn 33495, air, 24 h): 0 | Colony Color ([6]; klpn 33606, CO2, 21 h): 0 | Colony Color ([7]; psae 9027): 0 | Colony Color ([7]; psae 15442): 0 | Colony Color ([7]; psae 33607): 0 | Colony Color (Salmonella spp. (sasp); saty 19430): 0 | Colony Color (Salmonella spp. (sasp); satym 14028): 0 | Colony Color [8]: 0 | Colony Color ([9]; stag 4768, CO2, 21 h): 0 | Colony Color ([9]; stag 4768, air, 21 h): 0 | Colony Color ([9]; stag 12386, CO2, 21 h): 0 | Colony Color ([9]; stag 12386, CO2, 24 h): gp | Colony Color ([9]; stag 12386, air, 24 h): gp | Colony Color ([10]; stau 1006, CO2, 21 h): 0 | Colony Color ([10]; stau 1007, CO2, 21 h): 0 | Colony Color ([10]; stau 1008, CO2, 21 h): 0 | Colony Color ([10]; stau 1009, CO2, 21 h): 0 | Colony Color ([10]; stau 25923, CO2, 24 h): 0 | Colony Color ([10]; stau 25923, air, 24 h): 0 | Colony Color ([11]; step 12228, CO2): 0 | Colony Color ([11]; step 12228, air): 0 | Colony Color ([11]; step cdc1, CO2): 0 | Colony Color ([11]; step cdc1, air): 0 | Colony Color ([11]; step cdc2, CO2): 0 | Colony Color ([11]; step cdc2, air): 0 | Colony Color ([11]; step cdc3, CO2): 0 | Colony Color ([11]; step cdc3, air): 0 | Colony Color ([11]; step cdc4, CO2): 0 | Colony Color ([11]; step cdc4, air): 0 | Colony Color (S. milleri (stmi); CO2): 0 | Colony Color (S. milleri (stmi); air): 0 | Colony Color (S. pneumoniae (stpn); stpn 1259, CO2, 21 h): 0 | Colony Color (S. pneumoniae (stpn); stpn 1260, CO2, 21 h): 0 | Colony Color (S. pneumoniae (stpn); stpn 1628, CO2, 21 h): 0 | Colony Color (S. pneumoniae (stpn); stpn 6303, CO2, 24 h): 0 | Colony Color (S. pneumoniae (stpn); stpn 6303, air, 24 h): 0 | Colony Color (S. pneumoniae (stpn); stpn 6305, CO2, 24 h): 0 | Colony Color (S. pneumoniae (stpn); stpn 6305, air, 24 h): 0 | Colony Color (S pyogenes (stpy); stpy 1027, CO2): 0 | Colony Color (S pyogenes (stpy); stpy 1028, CO2): 0 | Colony Color (S pyogenes (stpy); stpy 1029, CO2): 0 | Colony Color (S pyogenes (stpy); stpy 1030, CO2): 0 | Colony Color (S pyogenes (stpy); stpy 19615, CO2): 0 | Colony Color (S pyogenes (stpy); stpy 19615, air): 0 | Colony Color (S pyogenes (stpy); stpy 49117, CO2): 0 | Colony Color (S pyogenes (stpy); stpy 49117, air): 0 | Colony Color (S pyogenes (stpy); stpy 51339, CO2): 0 | Colony Color (S pyogenes (stpy); stpy 51339, air): 0 | Colony Color (cakr 34135): 0 | Colony Color (milu 9341): 0

O=S(=O)([O-])Oc1c[nH]c2ccc(Br)c(Cl)c12.[K+] [X-Sulf, 5-Br-4-Cl-3-indolyl-sulfate (Potassium salt)]
Colony Color ([1]; aehy 7965): 0 | Colony Color ([1]; aehy 7966): 0 | Colony Color ([1]; aehy 49847): 0 | Colony Color (Summary) [1, 12]: 0 | Colony Color ([2]; brca 25238): 0 | Colony Color ([2]; brca 25240): 0 | Colony Color (Summary) [2, 13]: 0 | Colony Color (Candida albicans (caal); CO2): 0 | Colony Color (Candida albicans (caal); air): 0 | Colony Color (Summary) (Candida albicans (caal); [13]): 0 | Colony Color ([3]; One strain of Citrobacter): grey blue | Colony Color (Summary) [3, 13]: + | Colony Color ([3]; cifr 8454, CO2, 21 h): 0 | Colony Color ([3]; cifr 33128, CO2, 21 h): gb | Colony Color (Summary) [4, 14]: 0 | Colony Color ([4]; enfa 597, CO2, 21 h): 0 | Colony Color ([4]; enfa 597, air, 21 h): 0 | Colony Color ([4]; enfa 10741, CO2, 21 h): 0 | Colony Color ([4]; enfa 10741, air, 21 h): 0 | Colony Color ([4]; enfa 12953, CO2, 21 h): 0 | Colony Color ([4]; enfa 12953, air, 21 h): 0 | Colony Color ([4]; enfa 14506, CO2, 21 h): 0 | Colony Color ([4]; enfa 14506, air, 21 h): 0 | Colony Color ([4]; enfa 29212, CO2, 21 h): 0 | Colony Color ([4]; enfa 29212, CO2, 24 h): 0 | Colony Color ([4]; enfa 29212, air, 21 h): 0 | Colony Color ([4]; enfa 29212, air, 24 h): 0 | Colony Color (Summary) (E. faecium (enfu); [15]): 0 | Colony Color (E. faecium (enfu); CO2): 0 | Colony Color (E. faecium (enfu); air): 0 | Colony Color (Summary) [5, 12]: 0 | Colony Color ([5]; esco 11775, CO2, 21 h): 0 | Colony Color ([5]; esco 25922, CO2, 24 h): 0 | Colony Color ([5]; esco 25922, air, 24 h): 0 | Colony Color ([5]; esco 33605, CO2, 21 h): 0 | Colony Color (Summary) [6, 12]: 0 | Colony Color ([6]; klpn 13883, CO2, 21 h): 0 | Colony Color ([6]; klpn 33495, CO2, 24 h): 0 | Colony Color ([6]; klpn 33495, air, 24 h): 0 | Colony Color ([6]; klpn 33606, CO2, 21 h): 0 | Colony Color (Summary) [7, 12]: 0 | Colony Color ([7]; psae 9027): 0 | Colony Color ([7]; psae 15442): 0 | Colony Color ([7]; psae 33607): 0 | Colony Color (Summary) (Salmonella spp. (sasp); [13]): 0 | Colony Color (Salmonella spp. (sasp); saty 19430): 0 | Colony Color (Salmonella spp. (sasp); satym 14028): 0 | Colony Color (Summary) [8, 15]: 0 | Colony Color [8]: 0 | Colony Color (Summary) [9, 12]: 0 | Colony Color ([9]; stag 4768, CO2, 21 h): 0 | Colony Color ([9]; stag 4768, air, 21 h): 0 | Colony Color ([9]; stag 12386, CO2, 21 h): 0 | Colony Color ([9]; stag 12386, CO2, 24 h): 0 | Colony Color ([9]; stag 12386, air, 24 h): 0 | Colony Color (Summary) [10, 16]: 0 | Colony Color ([10]; stau 1006, CO2, 21 h): 0 | Colony Color ([10]; stau 1007, CO2, 21 h): 0 | Colony Color ([10]; stau 1008, CO2, 21 h): 0 | Colony Color ([10]; stau 1009, CO2, 21 h): 0 | Colony Color ([10]; stau 25923, CO2, 24 h): 0 | Colony Color ([10]; stau 25923, air, 24 h): 0 | Colony Color (Summary) [11, 16]: 0 | Colony Color ([11]; step 12228, CO2): 0 | Colony Color ([11]; step 12228, air): 0 | Colony Color ([11]; step cdc1, CO2): 0 | Colony Color ([11]; step cdc1, air): 0 | Colony Color ([11]; step cdc2, CO2): 0 | Colony Color ([11]; step cdc2, air): 0 | Colony Color ([11]; step cdc3, CO2): 0 | Colony Color ([11]; step cdc3, air): 0 | Colony Color ([11]; step cdc4, CO2): 0 | Colony Color ([11]; step cdc4, air): 0 | Colony Color (Summary) (S. milleri (stmi); [13]): 0 | Colony Color (S. milleri (stmi); air): 0 | Colony Color (Summary) (S. pneumoniae (stpn); [14]): 0 | Colony Color (S. pneumoniae (stpn); stpn 1259, CO2, 21 h): 0 | Colony Color (S. pneumoniae (stpn); stpn 1260, CO2, 21 h): 0 | Colony Color (S. pneumoniae (stpn); stpn 1628, CO2, 21 h): 0 | Colony Color (S. pneumoniae (stpn); stpn 6303, CO2, 24 h): 0 | Colony Color (S. pneumoniae (stpn); stpn 6303, air, 24 h): 0 | Colony Color (S. pneumoniae (stpn); stpn 6305, CO2, 24 h): 0 | Colony Color (S. pneumoniae (stpn); stpn 6305, air, 24 h): 0 | Colony Color (Summary) (S pyogenes (stpy); [14]): 0 | Colony Color (S pyogenes (stpy); stpy 1027, CO2): 0 | Colony Color (S pyogenes (stpy); stpy 1028, CO2): 0 | Colony Color (S pyogenes (stpy); stpy 1029, CO2): 0 | Colony Color (S pyogenes (stpy); stpy 1030, CO2): 0 | Colony Color (S pyogenes (stpy); stpy 19615, CO2): 0 | Colony Color (S pyogenes (stpy); stpy 19615, air): 0 | Colony Color (S pyogenes (stpy); stpy 49117, CO2): 0 | Colony Color (S pyogenes (stpy); stpy 49117, air): 0 | Colony Color (S pyogenes (stpy); stpy 51339, CO2): 0 | Colony Color (S pyogenes (stpy); stpy 51339, air): 0 | Activity (color) for most organisms (55 strains; chromogenic TSA II): inactive | Colony Color (cakr 34135): 0 | Colony Color (milu 9341): 0
